In ChEMBL document CHEMBL3390836, “Mannich- and LedererManasse-based analogues of the natural product S-(+)-curcuphenol as cancer proliferation and migration inhibitors” (Medchemcomm, 2012):

Tests used:
Assay type in all cases: functional
[1] = Cytotoxicity against human UO31 cells after 48 hrs by SRB assay; conditions: UO-31, 48 h
TK-10 [2] = assay: Cytotoxicity against human TK10 cells assessed as cell growth at 10^-7 M after 48 hrs by SRB assay relative to control; conditions: TK-10, 48 h, read-out: Activity
NCI-H23 [3] = assay: Cytotoxicity against human NCI-H23 cells assessed as cell growth at 10^-7 M after 48 hrs by SRB assay relative to control; conditions: NCI-H23, 48 h, read-out: Activity
NCI-H322M = assay: Cytotoxicity against human NCI-H322M cells after 48 hrs by SRB assay
CAKI-1 = assay: Cytotoxicity against human Caki1 cells assessed as cell growth at 10^-7 M after 48 hrs by SRB assay relative to control; conditions: CAKI-1, 48 h, read-out: Activity
[4] = Cytotoxicity against human OVCAR3 cells assessed as cell growth at 10^-7 M after 48 hrs by SRB assay relative to control; conditions: OVCAR-3, 48 h, read-out: Activity
SK-MEL-5 = assay: Cytotoxicity against human SK-MEL-5 cells assessed as cell growth at 10^-8 M after 48 hrs by SRB assay relative to control; conditions: SK-MEL-5, 48 h, read-out: Activity
RXF 393 [5] = assay: Cytotoxicity against human RXF393 cells assessed as cell growth at 10^-6 M after 48 hrs by SRB assay relative to control; conditions: RXF 393, 48 h, read-out: Activity
MDA-MB-468 [6] = assay: Cytotoxicity against human MDA-MB-468 cells assessed as cell growth at 10^-4 M after 48 hrs by SRB assay relative to control; conditions: MDA-MB-468, 48 h, read-out: Activity
A549 = assay: Cytotoxicity against human A549 cells assessed as cell growth at 10^-8 M after 48 hrs by SRB assay relative to control; conditions: A549, 48 h, read-out: Activity
TK-10 [7] = assay: Cytotoxicity against human TK10 cells assessed as cell growth at 10^-8 M after 48 hrs by SRB assay relative to control; conditions: TK-10, 48 h, read-out: Activity
U-251 = assay: Cytotoxicity against human U251 cells assessed as cell growth at 10^-6 M after 48 hrs by SRB assay relative to control; conditions: U-251, 48 h, read-out: Activity
COLO 205 [8] = assay: Cytotoxicity against human COLO205 cells assessed as cell growth at 10^-8 M after 48 hrs by SRB assay relative to control; conditions: COLO 205, 48 h, read-out: Activity
HL-60(TB) = assay: Cytotoxicity against human HL-60(TB) cells assessed as cell growth at 10^-4 M after 48 hrs by SRB assay relative to control; conditions: HL-60, 48 h, read-out: Activity
RXF 393 [9] = assay: Cytotoxicity against human RXF393 cells assessed as cell growth at 10^-7 M after 48 hrs by SRB assay relative to control; conditions: RXF 393, 48 h, read-out: Activity
MDA-MB-231 = assay: Cytotoxicity against human MDA-MB-231 cells after 48 hrs by SRB assay; conditions: MDA-MB-231, 48 h
[10] = Cytotoxicity against human Hs 578T cells assessed as cell growth at 10^-6 M after 48 hrs by SRB assay relative to control; conditions: read-out: Activity
BT-549 = assay: Cytotoxicity against human BT549 cells assessed as cell growth at 10^-7 M after 48 hrs by SRB assay relative to control; conditions: BT-549, 48 h, read-out: Activity
SNB-75 = assay: Cytotoxicity against human SNB75 cells assessed as cell growth at 10^-6 M after 48 hrs by SRB assay relative to control; conditions: SNB-75, 48 h, read-out: Activity
COLO 205 [11] = assay: Cytotoxicity against human COLO205 cells after 48 hrs by SRB assay; conditions: COLO 205, 48 h
SK-MEL-28 [12] = assay: Cytotoxicity against human SK-MEL-28 cells assessed as cell growth at 10^-6 M after 48 hrs by SRB assay relative to control; conditions: SK-MEL-28, 48 h, read-out: Activity
LOX IMVI = assay: Cytotoxicity against human LOXIMVI cells assessed as cell growth at 10^-8 M after 48 hrs by SRB assay relative to control; conditions: read-out: Activity
SNB-19 = assay: Cytotoxicity against human SNB19 cells assessed as cell growth at 10^-4 M after 48 hrs by SRB assay relative to control; conditions: SNB-19, 48 h, read-out: Activity
SN12C = assay: Cytotoxicity against human SN12C cells assessed as cell growth at 10^-6 M after 48 hrs by SRB assay relative to control; conditions: read-out: Activity
NCI-H23 [13] = assay: Cytotoxicity against human NCI-H23 cells assessed as cell growth at 10^-4 M after 48 hrs by SRB assay relative to control; conditions: NCI-H23, 48 h, read-out: Activity
KM12 = assay: Cytotoxicity against human KM12 cells assessed as cell growth at 10^-4 M after 48 hrs by SRB assay relative to control; conditions: KM12, 48 h, read-out: Activity
K562 = assay: Cytotoxicity against human K562 cells assessed as cell growth at 10^-6 M after 48 hrs by SRB assay relative to control; conditions: K562, 48 h, read-out: Activity
[14] = Cytotoxicity against human UACC62 cells assessed as cell growth at 10^-4 M after 48 hrs by SRB assay relative to control; conditions: UACC-62, 48 h, read-out: Activity
[15] = Cytotoxicity against human EKVX cells assessed as cell growth at 10^-4 M after 48 hrs by SRB assay relative to control; conditions: read-out: Activity
MDA-MB-468 [16] = assay: Cytotoxicity against human MDA-MB-468 cells after 48 hrs by SRB assay; conditions: MDA-MB-468, 48 h
NCI-H23 [17] = assay: Cytotoxicity against human NCI-H23 cells after 48 hrs by SRB assay; conditions: NCI-H23, 48 h
SK-MEL-28 [18] = assay: Cytotoxicity against human SK-MEL-28 cells assessed as cell growth at 10^-8 M after 48 hrs by SRB assay relative to control; conditions: SK-MEL-28, 48 h, read-out: Activity
NCI-H460 = assay: Cytotoxicity against human NCI-H460 cells assessed as cell growth at 10^-8 M after 48 hrs by SRB assay relative to control; conditions: NCI-H460, 48 h, read-out: Activity
HCC 2998 = assay: Cytotoxicity against human HCC2998 cells assessed as cell growth at 10^-6 M after 48 hrs by SRB assay relative to control; conditions: HCC 2998, 48 h, read-out: Activity
HOP-62 = assay: Cytotoxicity against human HOP62 cells after 48 hrs by SRB assay; conditions: HOP-62, 48 h

**Q.** Which results are given for `COc1ccc(CCN2COc3c([C@@H](C)CCC=C(C)C)ccc(C)c3C2)cc1OC`?
**A.** GI50 [1]: 2.45 µM; LC50 [1]: 36.4 µM; TGI [1]: 12.3 µM; growth at 0.1 µM (TK-10 [2]): 79%; growth at 0.1 µM (NCI-H23 [3]): 107%; GI50 (NCI-H322M): 3.03 µM; LC50 (NCI-H322M): 55.7 µM; TGI (NCI-H322M): 11.6 µM; growth at 0.1 µM (CAKI-1): 91%; growth at 0.1 µM [4]: 91%; growth at 0.01 µM (SK-MEL-5): 96%; growth at 1 µM (RXF 393 [5]): 76%; growth at 100 µM (MDA-MB-468 [6]): -92%; growth at 0.01 µM (A549): 87%; growth at 0.01 µM (TK-10 [7]): 88%; growth at 1 µM (U-251): 88%; growth at 0.01 µM (COLO 205 [8]): 105%; growth at 100 µM (HL-60(TB)): -5%; growth at 0.1 µM (RXF 393 [9]): 88%; GI50 (MDA-MB-231): 2.76 µM; LC50 (MDA-MB-231): 34.5 µM; TGI (MDA-MB-231): 9.37 µM; growth at 1 µM [10]: 93%; growth at 0.1 µM (BT-549): 91%; growth at 1 µM (SNB-75): 86%; GI50 (COLO 205 [11]): 1.79 µM; TGI (COLO 205 [11]): 3.19 µM; CC50 (COLO 205 [11]; read-out: LC50 (the source's name)): 5.7 µM; growth at 1 µM (SK-MEL-28 [12]): 99%; growth at 0.01 µM (LOX IMVI): 87%; growth at 100 µM (SNB-19): -33%; growth at 1 µM (SN12C): 87%; growth at 100 µM (NCI-H23 [13]): -92%; growth at 100 µM (KM12): -75%; growth at 1 µM (K562): 98%; growth at 100 µM [14]: -99%; growth at 100 µM [15]: -40%; GI50 (MDA-MB-468 [16]): 1.23 µM; LC50 (MDA-MB-468 [16]): 7.08 µM; TGI (MDA-MB-468 [16]): 9.95 µM; GI50 (NCI-H23 [17]): 2.55 µM; LC50 (NCI-H23 [17]): 21.8 µM; TGI (NCI-H23 [17]): 6.08 µM; growth at 0.01 µM (SK-MEL-28 [18]): 106%; growth at 0.01 µM (NCI-H460): 101%; growth at 1 µM (HCC 2998): 88%; GI50 (HOP-62): 1.86 µM; LC50 (HOP-62): 7.05 µM; TGI (HOP-62): 36.2 µM
